{"source": "patent US6521736B2", "about": "“Amphiphilic polymeric materials” (priority 2000, dated 2003)", "key": {"[1]": {"experiment": "Encapsulation of small molecules in PEG-1500-DMOI micelles, determined by UV spectroscopy", "format": "physicochemical", "settings": "for loading of complexed drug: complexed with PEG-1500-DMOI from 4:1 chloroform/methanol, taken up in water, UV", "protocol": "Benzo[a]Pyrene (BP), a dye and potent carcinogen, was chosen as a hydrophobic model because BP encapsulation within aqueous micelles of the PEG-1500-DMOI polymer can be monitored by UV absorption spectroscopy. The amount of dye encapsulated in the micelles was readily determined by UV spectroscopy since an absorbance signal due to benzo[a]pyrene appeared in the 340-450 nm region only when the dye was solubilized within the aqueous micelle. Different concentrations of dye were prepared in dichloromethane and each was added to a constant amount of polymeric micelle solution (1 ml of 100 mg/ml). Polymer-dye complex films were cast on glass and dried under vacuum at room temperature overnight. The films were then removed and redissolved in water by sonication at 35° C. for 10 minutes, and purified by filtration from excess dye. A homogenous, stable solution of the dye was formed at concentrations of more than 0.25 wt %, indicating partitioning of the dye into the micellar core. The maximum loading capacity of the dye was 0.88% (w/w). […] A partition coefficient of 5×10^4 was determined, indicating strong partitioning.\nIn other experiments using this encapsulation method, PEG-1500-DMOI was complexed with either camptothecin or etoposide by combining the polymer and drug in a 4:1 chloroform/methanol mixture, then evaporating the resulting mixture overnight at room temperature under vacuum. The residue was treated with 5 ml water and filtered to remove any uncomplexed camptothecin. The solution was then examined with UV spectroscopy to determine the amount of complexed drug."}, "HIVLAI": {"tested_on": "HIVLAI", "settings": "unencapsulated drug; cited from earlier work"}, "mammalian cell cultures": {"tested_on": "mammalian cell cultures", "experiment": "Cell growth, morphology and viability (XTT dye) in mammalian cell cultures", "format": "cell-based", "settings": "1 mM extracellular unencapsulated drug", "protocol": "[…] At higher concentrations (e.g., 30 μM), loss of cell viability was seen. Host cell translation was monitored by the expression of inducible β-galactosidase activity; cell viability was monitored spectrophotometrically using XTT dye."}, "CD4+HeLa cells": {"tested_on": "CD4+HeLa cells", "settings": "non-encapsulated drug; cited from earlier work"}, "HIV-1 Rev": {"tested_on": "HIV-1 Rev", "settings": "CD4+HeLa cells, non-encapsulated drug; cited from earlier work"}, "[2]": {"settings": "in aqueous PEG-1500-DMOI micelles"}}, "data": [{"compound": "c1ccc2c(c1)cc1ccc3cccc4ccc2c1c34", "note": "[Benzo[a]Pyrene]", "values": [{"measurement": "partition coefficient", "setting": "[1]", "result": "5×10^4"}, {"measurement": "dye concentration at which a homogenous, stable solution was formed", "setting": "[1]; [2]", "result": "more than 0.25 wt %"}, {"measurement": "maximum loading capacity of the dye", "setting": "[1]; [2]", "result": "0.88 % (w/w)"}]}, {"compound": "CC[C@@]1(O)C(=O)OCc2c1cc1n(c2=O)Cc2cc3ccccc3nc2-1", "note": "[camptothecin]", "values": [{"measurement": "loading of complexed drug", "setting": "[1]", "result": "1.25 % (w/w)"}]}, {"compound": "COc1cc([C@@H]2c3cc4c(cc3[C@@H](O[C@@H]3O[C@@H]5CO[C@@H](C)O[C@H]5[C@H](O)[C@H]3O)[C@H]3COC(=O)[C@H]23)OCO4)cc(OC)c1O", "note": "[etoposide]", "values": [{"measurement": "loading of complexed drug", "setting": "[1]", "result": "3.1 % (w/w)"}]}, {"compound": "NC[C@@H]1O[C@H](O[C@H]2[C@@H](O)[C@H](O[C@@H]3[C@@H](O)[C@H](N)C[C@H](N)[C@H]3O[C@H]3O[C@H](CN)[C@@H](O)[C@H](O)[C@H]3N)O[C@@H]2CO)[C@H](N)[C@@H](O)[C@@H]1O", "note": "[unencapsulated neomycin B, neomycin B]", "values": [{"measurement": "concentration that inhibits HIV production, previously reported", "setting": "HIVLAI", "result": "2,500-5,000 μM"}]}, {"compound": "C=C(NC(=O)C(=C)NC(=O)c1csc(C2=N[C@@H]3c4csc(n4)[C@H]4NC(=O)c5csc(n5)[C@H]([C@](C)(O)[C@@H](C)O)NC(=O)[C@H]5CSC(=N5)/C(=C/C)NC(=O)[C@H]([C@@H](C)O)NC(=O)c5csc(n5)[C@]3(CC2)NC(=O)[C@H](C)NC(=O)C(=C)NC(=O)[C@H](C)NC(=O)[C@H]([C@@H](C)CC)N[C@@H]2C=Cc3c([C@H](C)O)cc(nc3[C@H]2O)C(=O)O[C@@H]4C)n1)C(N)=O", "note": "[unencapsulated thiostrepton, thiostrepton]", "values": [{"measurement": "effect on cell growth or cell morphology", "setting": "mammalian cell cultures", "result": "no detectable effect"}]}, {"compound": "kazugamycin [non-encapsulated kazugamycin]", "values": [{"measurement": "concentration at which decreased cell proliferation and necrosis occur", "setting": "CD4+HeLa cells", "result": 35, "unit": "µM"}, {"measurement": "concentration that blocks HIV-1 Rev function", "setting": "HIV-1 Rev", "result": 25, "unit": "µM"}]}]}
